Data reported in patent publication US20090318375A1, “Crystalline Azithromycin L-Malate Monohydrate and Pharmaceutical Composition Containing Same” (Hanmi Pharm Co., Ltd, priority 2003, published 2009).
Like-named read-outs stand apart in the source and are kept apart here. One block for each molecule: values may come before it.

Experiments:
[1] = Hygroscopicity of acid addition salts of azithromycin after storage; assay type: physicochemical; settings: after 24 hours storage at 40° C. and 75% relative humidity
[2] = Moisture uptake of malate anhydrates exposed at 40° C. and 75% relative humidity; assay type: physicochemical; settings: exposed at 40° C. and 75% relative humidity for 10 hours
Water-solubility test = assay type: physicochemical; settings: thermodynamic from solid, 25° C., based on amount of azithromycin dissolved
Procedure: The azithromycin L-malate monohydrate of the present invention and azithromycin dihydrate were dissolved in deionized water and in phosphoric acid buffer solution (pH 7) to saturation, respectively. The water-solubility of each of the saturated solutions was analyzed by HPLC according to the procedure described in the US Pharmacopoeia, to determine the amount of azithromycin dissolved.

[3] = Non-hygroscopicity test (moisture content, Karl-Fisher titrator); assay type: physicochemical
Procedure: The inventive azithromycin L-malate monohydrate was continuously exposed at 25 or 40° C. and 40 to 90% relative humidity for a period of over 15 days. The moisture contents of the inventive salt measured with a Karl-Fisher titrator at storage time 0, 3, 7 and 15 days are shown in Table 5 and FIG. 5.

[4] = Heat stability test (remaining active azithromycin by HPLC); assay type: physicochemical; settings: 60° C. and 75% relative humidity; for Amount of titrated azithromycin: sealed
Procedure: The time-dependent stability at a high temperature of the inventive azithromycin L-malate monohydrate was measured and compared with that of the known azithromycin dihydrate.

[5] = dog, in vivo, po, 20 mg/kg
Procedure: (§1) Specifically, twelve Marshall beagle dogs (Beijing, average weight: 9.5±0.5 kg) were divided with two groups each consisting of six dogs. Each of divided dogs was fasted for 16 hours and then orally administered with a single 20 mg/kg dose of the inventive azithromycin L-malate monohydrate (test group) or azithromycin dihydrate (control group) contained in a gelatin capsule. After administration, blood samples were periodically collected, followed by separating plasma therefrom. The azithromycin samples extracted from the plasma was subjected to LC/MS/MS analysis to measure the amount of azithromycin therein and to calculate pharmacokinetic parameters.

in vivo = settings: beagle, dog, po, 20 mg/kg
Procedure: as §1

[6] = 37° C.; cited from earlier work
[7] = Pharmacokinetic test, azithromycin concentration in blood; settings: beagle, dog, plasma, po, 20 mg/kg
Procedure: as §1

[8] = deionized water, water, read-out: Solubility, deionized water
[9] = phosphoric acid buffer solution, aqueous buffer, phosphoric acid buffer pH 7, read-out: Solubility, buffer solution (pH 7)

- Salt form (hygroscopicity) [1]: Crystalline, hygroscopic
Molecule: 2-naphthalene sulfonic acid

- Salt form (hygroscopicity) [1]: Crystalline, hygroscopic^e)
- Moisture content increased to [2]: ≥ 6%
Molecule: CC[C@H]1OC(=O)[C@H](C)[C@@H](O[C@H]2C[C@@](C)(OC)[C@@H](O)[C@H](C)O2)[C@H](C)[C@@H](O[C@@H]2O[C@H](C)C[C@H](N(C)C)[C@H]2O)[C@](C)(O)C[C@@H](C)CN(C)[C@H](C)[C@@H](O)[C@]1(C)O.O=C(O)CC(O)C(=O)O (racemic) [DL-malate anhydrate, Azithromycin DL-Malate Anhydrate]

- Salt form (hygroscopicity) [1]: Crystalline, hygroscopic^d)
- Increase of moisture content [2]: about 2.0%
Molecule: CCC1OC(=O)C(C)C(OC2CC(C)(OC)C(O)C(C)O2)C(C)C(OC2OC(C)CC(N(C)C)C2O)C(C)(O)CC(C)CN(C)C(C)C(O)C1(C)O.O=C(O)CC(O)C(=O)O [L-malate anhydrate, Azithromycin L-Malate Anhydrate]

- Salt form (hygroscopicity) [1]: Amorphous, hygroscopic
Molecule: Br [Hydrobromic acid]

- Salt form (hygroscopicity) [1]: Crystalline, hygroscopic
Molecule: Fumaric acid

- Salt form (hygroscopicity) [1]: Amorphous, hygroscopic
Molecule: Maleic acid

- solubility (Water-solubility test; [8]): 100 µg/mL
- solubility (Water-solubility test; [9]): 5100 µg/mL
- Heat stability (in words) ([4]; 28 days): significant degradation
- Amount of titrated azithromycin ([4]; 7 days): 974.6 µg/mg
- Amount of titrated azithromycin ([4]; 14 days): 975.3 µg/mg
- Amount of titrated azithromycin ([4]; 21 days): 973.2 µg/mg
- Amount of titrated azithromycin ([4]; 28 days): 971.6 µg/mg
- Amount of titrated azithromycin ([4]; initial): 976.5 µg/mg
- Cmax (in vivo): 1950 ± 710 ng/mL
- AUC(0-t) (in vivo; AUC0-24): 20600 ± 6640 ng·h/mL
- AUC(0-t) (in vivo; AUC0-48): 27900 ± 9710 ng·h/mL
- Tmax [7]: 48 ± 18 min
Molecule: CC[C@H]1OC(=O)[C@H](C)[C@@H](O[C@H]2C[C@@](C)(OC)[C@@H](O)[C@H](C)O2)[C@H](C)[C@@H](O[C@@H]2O[C@H](C)C[C@H](N(C)C)[C@H]2O)[C@](C)(O)C[C@@H](C)CN(C)[C@H](C)[C@@H](O)[C@]1(C)O [Azithromycin dihydrate, 9-deoxo-9a-aza-9a-methyl-9a-homoerythromycin A, reference compound]
- Water-solubility [6]: 1100 µg/mL

The remaining lines, values behind:

Molecule: Cl [Hydrochloric acid]
- Salt form (hygroscopicity) [1]: Amorphous, hygroscopic

Molecule: Cc1ccc(S(=O)(=O)O)cc1 [p-toluene sulfonic acid]
- Salt form (hygroscopicity) [1]: Amorphous, hygroscopic

Molecule: O=C(O)[C@H](O)[C@@H](O)C(=O)O [L-Tartaric acid]
- Salt form (hygroscopicity) [1]: Crystalline, hygroscopic

Molecule: O=S(=O)(O)O [Sulfuric acid]
- Salt form (hygroscopicity) [1]: Amorphous, hygroscopic

Molecule: CC[C@H]1OC(=O)[C@H](C)[C@@H](O[C@H]2C[C@@](C)(OC)[C@@H](O)[C@H](C)O2)[C@H](C)[C@@H](O[C@@H]2O[C@H](C)C[C@H](N(C)C)[C@H]2O)[C@](C)(O)C[C@@H](C)CN(C)[C@H](C)[C@@H](O)[C@]1(C)O.O=C(O)C[C@H](O)C(=O)O [Azithromycin L-malate monohydrate, azithromycin L-malate monohydrate]
- Salt form (hygroscopicity) [1]: Crystalline, non-hygroscopic^c)
- solubility (Water-solubility test; [8]): 393000 µg/mL
- solubility (Water-solubility test; [9]): 392000 µg/mL
- Hygroscopicity (in words) ([3]; 25 or 40° C., 40 to 90% relative humidity, 15 days): largely non-hygroscopic
- Moisture content ([3]; 40% relative humidity, 25° C., 3 days): 1.78 wt %
- Moisture content ([3]; 40% relative humidity, 25° C., 7 days): 1.75 wt %
- Moisture content ([3]; 40% relative humidity, 25° C., 15 days): 1.73 wt %
- Moisture content ([3]; 40% relative humidity, 25° C., initial): 1.75 wt %
- Moisture content ([3]; 60% relative humidity, 25° C., 3 days): 1.82 wt %
- Moisture content ([3]; 60% relative humidity, 25° C., 7 days): 1.80 wt %
- Moisture content ([3]; 60% relative humidity, 25° C., 15 days): 1.80 wt %
- Moisture content ([3]; 60% relative humidity, 25° C., initial): 1.75 wt %
- Moisture content ([3]; 75% relative humidity, 40° C., 3 days): 1.80 wt %
- Moisture content ([3]; 75% relative humidity, 40° C., 7 days): 1.82 wt %
- Moisture content ([3]; 75% relative humidity, 40° C., 15 days): 1.85 wt %
- Moisture content ([3]; 75% relative humidity, 40° C., initial): 1.75 wt %
- Moisture content ([3]; 90% relative humidity, 40° C., 3 days): 1.87 wt %
- Moisture content ([3]; 90% relative humidity, 40° C., 7 days): 1.85 wt %
- Moisture content ([3]; 90% relative humidity, 40° C., 15 days): 1.85 wt %
- Moisture content ([3]; 90% relative humidity, 40° C., initial): 1.75 wt %
- Heat stability (in words) ([4]; 28 days): highly stable
- Amount of titrated azithromycin ([4]; 7 days): 984.6 µg/mg
- Amount of titrated azithromycin ([4]; 14 days): 985.1 µg/mg
- Amount of titrated azithromycin ([4]; 21 days): 987.0 µg/mg
- Amount of titrated azithromycin ([4]; 28 days): 985.4 µg/mg
- Amount of titrated azithromycin ([4]; initial): 986.4 µg/mg
- AUC0-24, T group/C group [5]: 1.34
- AUC0-48, T group/C group [5]: 1.34
- Cmax compared with azithromycin dihydrate (in words) [5]: about two times higher
- Cmax, T group/C group [5]: 1.94
- Tmax, T group/C group [5]: 0.75
- Cmax (in vivo): 3780 ± 1380 ng/mL
- Tmax (in vivo): 36 ± 12 min
- AUC(0-t) (in vivo; AUC0-24): 27600 ± 6860 ng·h/mL
- AUC(0-t) (in vivo; AUC0-48): 37300 ± 8830 ng·h/mL

Molecule: Citric acid
- Salt form (hygroscopicity) [1]: Amorphous, hygroscopic

Molecule: Azithromycin D-Malate Anhydrate
- Salt form (hygroscopicity) [1]: Crystalline, hygroscopic^f)
- Increase of moisture content [2]: ≥ 8%
